# Results reported in patent US8192951B2, “Glycolysis-inhibiting substances in cell culture” (Wyeth LLC, priority 2006, dated 2012).
# Legend:
# [1] = test system: α-GDF-8 cells (CHO cells engineered to express a monoclonal antibody against GDF-8); assay: Cell growth of α-GDF-8 cells in culture dishes with varying 2-deoxyglucose (Example 1); format: cell-based, Chinese Hamster
# Experimental: Materials and Methods: Chinese Hamster Ovary (“CHO”) cells engineered to express a monoclonal antibody against growth and differentiation factor 8 (“α-GDF-8 cells”) (see […] et al., Neutralizing Antibodies Against GDF-8 and Uses Therefor, US20040142382 A1) were grown in culture dishes in Medium 1 supplemented with glucose to a final initial concentration of 9 g/L with varying concentrations of 2-deoxyglucose.
# α-GDF-8 cells [2] = assay: Lactate, growth, viability and titer of α-GDF-8 cells in culture dishes, two passages (Example 2); format: cell-based, Chinese Hamster; design: key to Gluc: glucose in g/L; viab: unit not given here
# Experimental: Materials and Methods: α-GDF-8 cells were grown in culture dishes in Medium 1 containing approximately 6 g/L glucose with varying concentrations of 2-deoxyglucose. Some α-GDF-8 cultures were optionally supplemented with glucose to a final initial concentration of 9 g/L. Cells were passaged twice and grown for three days after each passage. At the end of three days, each of the passaged cultures was measured for viability, cell density, glucose levels, lactate levels and α-GDF-8 titer. Specific titer production rate (“Qp”) and specific lactate uptake rate (“Qlact”) were calculated. Qlact was calculated as follows: ((final lactate level−initial lactate level)/(final cell density−initial cell density))×growth rate×24, where lactate levels are measured in g/L, cell densities are measured in 10^6 cells/ml, growth rate is measured as l/h, and the final Qlact is calculated as mg/e6/day. Qp was calculated as follows: ((final titer−initial titer)/(final cell density−initial cell density))×growth rate×24, where titer is measured in mg/L, cell density is measured in 10^6 cells/ml, growth rate is measured as 1/h, and Qp is calculated as μg/e6/day.
# α-GDF-8 cells [3] = assay: α-GDF-8 cells in 1 L Bioreactors, shift on day 4 or day 6 (Example 3); format: cell-based, Chinese Hamster
# Experimental: Materials and Methods: α-GDF-8 cells were grown in Medium 2 in 1 L Bioreactors and fed with Medium 3. Some of the cultures were supplemented with 0.5 g/L 2-deoxyglucose at the beginning of the culture. The cultures were shifted from 37° Celsius to 31° Celsius on either day 4 (“early shift”) or day 6 (“late shift”). [table]
# α-GDF-8 cells [4] = assay: α-GDF-8 cells in 1 L Bioreactors, shift on day 5 or day 6 (Example 4); format: cell-based, Chinese Hamster
# Experimental: Materials and Methods: α-GDF-8 cells were grown in Medium 2 in 1 L Bioreactors and fed with Medium 3. Some of the cultures were supplemented with 0.5 g/L 2-deoxyglucose at the beginning of the culture. The cells were fed with either 3 g/L glucose or 0.3 g/L 2-deoxyglucose on day 4 and with either 10% feed medium (by volume) or 10% feed medium (by volume) supplemented with 0.2 g/L 2-deoxyglucose on day 5. The cultures were shifted from 37° Celsius to 31° Celsius on either day 5 (“early shift”) or day 6 (“late shift”). Additional feeds were provided on days 7 and 10. [table]
# α-GDF-8 cells [5] = assay: α-GDF-8 cells in 1 L Bioreactors in the presence of high glucose (Example 5); format: cell-based, Chinese Hamster; settings: 0.5 g/L 2-deoxyglucose
# Experimental: Materials and Methods: α-GDF-8 cells were grown in Medium 2 in 1 L Bioreactors and fed with Medium 3. The starting culture media were either supplemented or not with 0.5 g/L 2-deoxyglucose. The cells were fed on days 3, 5, 7, 10 and 12 to keep the glucose level at above approximately 8 g/L. The cultures lacking 2-deoxyglucose were shifted from 37° Celsius to 31° Celsius on day 4, while the cultures containing 2-deoxyglucose were shifted from 37° Celsius to 31° Celsius on day 5.
# rats = settings: fed to rats, without decreasing total food intake; cited from earlier work
# [6] = first passage, 0.25 g/L deoxyglucose, 9 g/L glucose
# [7] = first passage, 0.5 g/L deoxyglucose, 6 g/L glucose
# [8] = first passage, 0.5 g/L deoxyglucose, 9 g/L glucose
# [9] = first passage, 1 g/L deoxyglucose, 9 g/L glucose
# [10] = second passage, 0.25 g/L deoxyglucose, 9 g/L glucose
# [11] = second passage, 0.5 g/L deoxyglucose, 6 g/L glucose
# [12] = second passage, 0.5 g/L deoxyglucose, 9 g/L glucose
# [13] = second passage, 1 g/L deoxyglucose, 6 g/L glucose
# [14] = second passage, 1 g/L deoxyglucose, 9 g/L glucose
# [15] = 0.5 g/L 2-deoxyglucose, early shift (day 4)
# [16] = 0.5 g/L 2-deoxyglucose, late shift (day 6)
structure (smiles),measurement,setting,value
O=CC[C@@H](O)[C@H](O)[C@H](O)CO [2-deoxyglucose],specific growth rate (μ),"[1]; 1 g/L 2-deoxyglucose, 9 g/L glucose (ratio 1:9)",over 0.02 l/h
same,specific growth rate (μ),"[1]; 2.5 g/L 2-deoxyglucose, 9 g/L glucose",approximately 0.015 l/h
same,effect of increasing amounts on specific growth rate,[1]; 9 g/L glucose,reduced the specific growth rate in a dose-dependent manner
same,effect on accumulation of lactate,"α-GDF-8 cells [2]; culture dishes, dose-dependent",reduced the accumulation of lactate in the culture in a dose-dependent manner
same,effect on specific growth rate,"α-GDF-8 cells [2]; culture dishes, dose-dependent",negatively affected
same,effect on α-GDF-8 titer,"α-GDF-8 cells [2]; culture dishes, dose-dependent",reduced the α-GDF-8 titer in a dose-dependent manner
same,Gluc,α-GDF-8 cells [2]; [6],7.55
same,Qlact,α-GDF-8 cells [2]; [6],0.899 mg/e6/day
same,c.d (end),α-GDF-8 cells [2]; [6],1.3 10^6 cells/ml
same,lact,α-GDF-8 cells [2]; [6],1.53 g/L
same,viab,α-GDF-8 cells [2]; [6],99.7
same,μ (specific growth rate),α-GDF-8 cells [2]; [6],0.032 h⁻¹
same,Gluc,α-GDF-8 cells [2]; [7],5.21
same,Qlact,α-GDF-8 cells [2]; [7],0.701 mg/e6/day
same,c.d (end),α-GDF-8 cells [2]; [7],1.24 10^6 cells/ml
same,lact,α-GDF-8 cells [2]; [7],1.2 g/L
same,viab,α-GDF-8 cells [2]; [7],99.1
same,μ (specific growth rate),α-GDF-8 cells [2]; [7],0.03 h⁻¹
same,Gluc,α-GDF-8 cells [2]; [8],7.88
same,Qlact,α-GDF-8 cells [2]; [8],0.727 mg/e6/day
same,c.d (end),α-GDF-8 cells [2]; [8],1.12 10^6 cells/ml
same,lact,α-GDF-8 cells [2]; [8],1.22 g/L
same,viab,α-GDF-8 cells [2]; [8],99.3
same,μ (specific growth rate),α-GDF-8 cells [2]; [8],0.028 h⁻¹
same,Gluc,α-GDF-8 cells [2]; [9],8.13
same,Qlact,α-GDF-8 cells [2]; [9],0.553 mg/e6/day
same,c.d (end),α-GDF-8 cells [2]; [9],1.05 10^6 cells/ml
same,lact,α-GDF-8 cells [2]; [9],0.9 g/L
same,viab,α-GDF-8 cells [2]; [9],99.7
same,μ (specific growth rate),α-GDF-8 cells [2]; [9],0.027 h⁻¹
same,Gluc,α-GDF-8 cells [2]; [10],7.25
same,Qlact,α-GDF-8 cells [2]; [10],0.576 mg/e6/day
same,Qp,α-GDF-8 cells [2]; [10],15.477 μg/e6/day
same,c.d (end),α-GDF-8 cells [2]; [10],3.2 10^6 cells/ml
same,lact,α-GDF-8 cells [2]; [10],2.17 g/L
same,titer (α-GDF-8),α-GDF-8 cells [2]; [10],58.28 mg/L
same,viab,α-GDF-8 cells [2]; [10],99.5
same,μ (specific growth rate),α-GDF-8 cells [2]; [10],0.035 h⁻¹
same,Gluc,α-GDF-8 cells [2]; [11],5.04
same,Qlact,α-GDF-8 cells [2]; [11],0.415 mg/e6/day
same,Qp,α-GDF-8 cells [2]; [11],13.135 μg/e6/day
same,c.d (end),α-GDF-8 cells [2]; [11],2.6 10^6 cells/ml
same,lact,α-GDF-8 cells [2]; [11],1.36 g/L
same,titer (α-GDF-8),α-GDF-8 cells [2]; [11],43 mg/L
same,viab,α-GDF-8 cells [2]; [11],99
same,μ (specific growth rate),α-GDF-8 cells [2]; [11],0.033 h⁻¹
same,Gluc,α-GDF-8 cells [2]; [12],7.65
same,Qlact,α-GDF-8 cells [2]; [12],0.506 mg/e6/day
same,Qp,α-GDF-8 cells [2]; [12],14.252 μg/e6/day
same,c.d (end),α-GDF-8 cells [2]; [12],2.8 10^6 cells/ml
same,lact,α-GDF-8 cells [2]; [12],1.79 g/L
same,titer (α-GDF-8),α-GDF-8 cells [2]; [12],50.37 mg/L
same,viab,α-GDF-8 cells [2]; [12],99.6
same,μ (specific growth rate),α-GDF-8 cells [2]; [12],0.033 h⁻¹
same,Gluc,α-GDF-8 cells [2]; [13],6.51
same,Qlact,α-GDF-8 cells [2]; [13],0.290 mg/e6/day
same,Qp,α-GDF-8 cells [2]; [13],12.038 μg/e6/day
same,c.d (end),α-GDF-8 cells [2]; [13],1.5 10^6 cells/ml
same,lact,α-GDF-8 cells [2]; [13],0.68 g/L
same,titer (α-GDF-8),α-GDF-8 cells [2]; [13],28.22 mg/L
same,viab,α-GDF-8 cells [2]; [13],98.6
same,μ (specific growth rate),α-GDF-8 cells [2]; [13],0.027 h⁻¹
same,Gluc,α-GDF-8 cells [2]; [14],9
same,Qlact,α-GDF-8 cells [2]; [14],0.290 mg/e6/day
same,Qp,α-GDF-8 cells [2]; [14],12.400 μg/e6/day
same,c.d (end),α-GDF-8 cells [2]; [14],1.9 10^6 cells/ml
same,lact,α-GDF-8 cells [2]; [14],0.98 g/L
same,titer (α-GDF-8),α-GDF-8 cells [2]; [14],34.85 mg/L
same,viab,α-GDF-8 cells [2]; [14],99
same,μ (specific growth rate),α-GDF-8 cells [2]; [14],0.028 h⁻¹
same,Qlact,"α-GDF-8 cells [2]; second passage, 1 g/L deoxyglucose, 9 g/L glucose, listed as 2-Deoxyglucose",0.349 mg/e6/day
same,effect on viability of the cells,α-GDF-8 cells [2]; up to a ratio of 2-deoxyglucose to glucose of 1 to 6,largely unaffected
same,final titer vs culture lacking 2-deoxyglucose,α-GDF-8 cells [3]; [15],slightly higher
same,lactate levels vs culture lacking 2-deoxyglucose,α-GDF-8 cells [3]; [15],slightly lower
same,cell density at the time of the shift,α-GDF-8 cells [3]; [16],approximately 18 ×e^6/mL
same,final titer vs culture lacking 2-deoxyglucose,α-GDF-8 cells [3]; [16],slightly higher
same,lactate level at the time of the shift,α-GDF-8 cells [3]; [16],approximately 6 g/L
same,lactate levels vs culture lacking 2-deoxyglucose,α-GDF-8 cells [3]; [16],slightly lower
same,viability vs late shifted cells without 2-deoxyglucose,α-GDF-8 cells [3]; [16],significantly higher
same,cell density vs the other three conditions,"α-GDF-8 cells [3]; 0.5 g/L 2-deoxyglucose, late shift (day 6), from approximately day 4",significantly higher
same,lactate level at the time of the shift,"α-GDF-8 cells [3]; early shift (day 4), stated for the two early shifted cultures, with and without 2-deoxyglucose",4 to 5 g/L
same,final lactate concentration vs early shifted cultures,α-GDF-8 cells [4]; [16],lower
same,α-GDF-8 produced per cell vs other three conditions,α-GDF-8 cells [4]; [16],less α-GDF-8 per cell
same,cell density vs the other three conditions,"α-GDF-8 cells [4]; 0.5 g/L 2-deoxyglucose, late shift (day 6), from approximately day 5",significantly higher
same,glucose uptake,"α-GDF-8 cells [4]; 2-deoxyglucose in the culture medium, early and late shift",decrease
same,overall titer of α-GDF-8 vs other culture conditions,α-GDF-8 cells [4]; all four culture conditions,similar
same,lactate accumulation vs cultures lacking 2-deoxyglucose,"α-GDF-8 cells [5]; glucose above approximately 8 g/L, shift day 5",significantly lower
same,α-GDF-8 titer vs culture lacking 2-deoxyglucose,"α-GDF-8 cells [5]; high glucose, by day 14",slightly higher
same,cell density vs culture lacking 2-deoxyglucose,"α-GDF-8 cells [5]; high glucose, middle stage of the culture",slightly higher
same,overall integrated viable cell density vs cells without 2-deoxyglucose,"α-GDF-8 cells [5]; high glucose, shifted one day later",higher
same,glucose/energy flux,rats,reduces glucose/energy flux
